Data set [1] concerns the target T1, full-length beta-catenin (Axin site) (Homo sapiens, UniProt P35222).
T1 construct: 15 nM full-length beta-catenin, 20 nM FITC labeled peptide in buffer
T1 sequence (P35222 1-781): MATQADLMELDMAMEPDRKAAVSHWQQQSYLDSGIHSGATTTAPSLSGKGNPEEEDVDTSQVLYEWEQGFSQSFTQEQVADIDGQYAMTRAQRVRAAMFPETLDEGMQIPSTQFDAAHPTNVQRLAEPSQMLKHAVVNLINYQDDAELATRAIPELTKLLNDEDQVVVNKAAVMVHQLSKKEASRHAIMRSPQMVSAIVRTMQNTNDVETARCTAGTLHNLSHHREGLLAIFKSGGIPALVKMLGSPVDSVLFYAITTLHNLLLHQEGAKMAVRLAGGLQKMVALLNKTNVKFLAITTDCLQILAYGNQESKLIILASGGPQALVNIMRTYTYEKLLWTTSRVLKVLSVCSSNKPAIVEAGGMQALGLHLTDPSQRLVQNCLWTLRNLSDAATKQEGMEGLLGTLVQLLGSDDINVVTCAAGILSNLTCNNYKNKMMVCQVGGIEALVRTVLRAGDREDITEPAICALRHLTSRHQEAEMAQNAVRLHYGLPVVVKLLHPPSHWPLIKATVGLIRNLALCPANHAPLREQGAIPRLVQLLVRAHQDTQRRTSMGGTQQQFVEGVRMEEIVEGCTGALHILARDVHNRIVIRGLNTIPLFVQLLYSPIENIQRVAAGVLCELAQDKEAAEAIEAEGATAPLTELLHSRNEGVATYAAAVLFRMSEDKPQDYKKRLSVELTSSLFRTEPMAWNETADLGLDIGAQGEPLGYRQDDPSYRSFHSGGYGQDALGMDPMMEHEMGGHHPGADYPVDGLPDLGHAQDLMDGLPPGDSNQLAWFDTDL
The data set is described as follows: Competition fluorescence polarization assay (Axin site probe). It counts as binding. To be noted: competition fluorescence polarization, Table 2; read-out: in vitro FP EC50. The gist of the method: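 Competition FP: 15 nM full-length β-catenin pre-incubated 5 min with 20 nM FITC-labelled stapled Axin-site peptide, then titrated peptide added (3-fold series from 5 μM) for 15 min in the dark. Buffer 50 mM Tris pH 8.0, 250 mM NaCl, 2% glycerol, 0.5 mM EDTA; duplicate reads.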

The target in data set [2] is T2, biotinylated beta-catenin (Homo sapiens, UniProt P35222).
T2 sequence (P35222 1-781): T1 sequence (P35222 1-781)
The data set is described as follows: Surface Plasmon Resonance (Biacore). Format: binding. The protocol: Additionally or alternatively, binding to beta-catenin may be measured by Surface Plasmon Resonance. In an exemplary assay, approximately 6 nmol dried peptide diluted in buffer (50 mM Tris pH 8.0, 300 mM NaCl, 2% glycerol, 0.5 mM TCEP, 0.5 mM EDTA, 0.005% Tween-20, 1 mg/mL CM Dextran, 0.02% w/v sodium azide) was assayed on a Biacore X100 using the Biacore Biotin CAPture Kit (GE Healthcare) and biotinylated beta-catenin. Results were analyzed using the Biacore X100 Evaluation Software. […] FPO217c (Isomer 2) bound to the armadillo domain of β-catenin with a Kd of 2 nM.
For orientation: In SPR one partner is held on a chip, and binding of the other changes the refractive index at the surface.

Data set [3] can be described thus: Solubility in DPBS (A280 of supernatant). It counts as physicochemical. The settings on record: DPBS. The gist of the method: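 Dried peptide reconstituted in DPBS in triplicate, vortexed, sonicated and centrifuged. Supernatant A280 measured; concentration calculated using the tryptophan extinction coefficient.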
A further data set is described as follows: Plasma PK in rats. Format: in vivo. The settings on record: IV 0.5 mg/kg, male Sprague-Dawley rats. How it is done: (§1) FIG. 6. Exemplary pharmacokinetic properties. Peptides were formulated in 10% DMSO:90% saline and dosed by IV at 0.5 mg/kg per compound in three male Sprague-Dawley rats. Serial bleed time-points were taken at 2 min, 6 min, 10 min, 15 min, 30 min, 1, 2, 4, 6, 8, 12 and 24 h and analyzed by quantitative LC/MS using a Thermo Q-Exactive Focus LC/MS/MS. Samples were prepared by protein precipitation with MeOH. Data were fit to a two-compartment model.
as §1, with “Various technologies can be utilized to assess properties of provided agents, e.g., stapled peptides, in accordance with the present disclosure. In some embodiments, plasma PK methods are used to assess” for “FIG. 6. Exemplary”, “In an exemplary assay, peptides” for “Peptides”, “model. […] Exemplary data are presented, e.g., in FIG. 6.” for “model.”

For a further data set, the target named is T3, beta-catenin (Homo sapiens, UniProt P35222).
T3 sequence (P35222 1-781): T1 sequence (P35222 1-781)
The settings on record: reported in Grossmann et al.; cited from earlier work.

The target of data set [4] is T4, full-length beta-catenin (UniProt P35222 2-781, limits assumed).
T4 construct: mature; also called full-length ß-Catenin; β-catenin
T4 sequence (looked up): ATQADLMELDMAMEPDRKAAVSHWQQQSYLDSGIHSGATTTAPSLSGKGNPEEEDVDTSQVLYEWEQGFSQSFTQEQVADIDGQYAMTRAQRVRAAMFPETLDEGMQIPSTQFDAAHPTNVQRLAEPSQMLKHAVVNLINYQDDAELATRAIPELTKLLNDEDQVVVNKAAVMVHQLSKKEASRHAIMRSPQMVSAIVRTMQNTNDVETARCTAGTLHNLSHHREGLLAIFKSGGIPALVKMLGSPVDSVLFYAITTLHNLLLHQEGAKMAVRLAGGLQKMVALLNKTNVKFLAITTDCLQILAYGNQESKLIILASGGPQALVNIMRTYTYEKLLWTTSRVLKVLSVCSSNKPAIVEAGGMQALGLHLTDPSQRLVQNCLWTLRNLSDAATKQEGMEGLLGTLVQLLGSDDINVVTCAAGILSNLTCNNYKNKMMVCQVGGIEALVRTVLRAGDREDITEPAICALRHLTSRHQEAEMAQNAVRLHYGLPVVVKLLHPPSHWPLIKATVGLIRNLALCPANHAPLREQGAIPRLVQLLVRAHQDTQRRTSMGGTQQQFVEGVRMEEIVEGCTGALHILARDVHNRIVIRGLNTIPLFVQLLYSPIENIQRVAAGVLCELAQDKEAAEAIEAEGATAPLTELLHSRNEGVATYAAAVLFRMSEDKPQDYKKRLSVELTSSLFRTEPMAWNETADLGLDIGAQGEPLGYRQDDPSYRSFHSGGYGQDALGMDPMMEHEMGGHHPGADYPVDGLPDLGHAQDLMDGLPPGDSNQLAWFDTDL
In words: competition FP; control of Table 5.

For data set [5], the target named is T4, full-length beta-catenin. The data set is described as follows: competition FP, grade of FP EC50 (++: 100-500 nM). The gist of the method:
(§2)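 Compound 3-fold serially diluted from 5 µM in Tris pH 8.0, 250 mM NaCl buffer, added to premixed 15 nM full-length β-catenin and 20 nM FITC-labelled stapled axin-site peptide probe. Incubated 15 min in the dark, polarization read in duplicate.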

In data set [6] the target is T4, full-length beta-catenin. The data set is described as follows: competition FP, grade of FP EC50 (+++: <=100 nM). The gist of the method:
as §2

Data set [7] addresses T4, full-length beta-catenin. In words: competition FP, displacement of a labeled probe from the axin site. How it is done: In some embodiments, a competition fluorescence polarization assay is used to assess binding of provided compounds to beta-catenin. In an exemplary procedure, solutions of provided compounds, e.g., provided stapled peptides, were prepared in a buffer (e.g., 50 mM Tris pH 8.0, 250 mM NaCl, 2% glycerol, 0.5 mM EDTA, 0.02% w/v sodium azide) using a 3-fold serial dilution from 5 µM. Probe solution (15 nM full-length ß-Catenin, 20 nM FITC labeled peptide in buffer) was prepared and incubated for a period of time, e.g., 5 minutes, and the a volume, e.g., 40 µL per well plated in suitable plate, e.g., a black polystyrene 384-well plate (Corning). Equal volume of the serial diluted peptide was added to the plate and incubated protected from light for 15 minutes prior to read. Reads were performed on a Spectramax M5 (Molecular Devices) in duplicate. Suitable probe was FITC-PEG1-PQ-S5-ILD-S5-HVRRVWR (SEQ ID NO: 1) (hydrocarbon staple formed by two S5 via olefin metathesis) and/or FITC-bA-PQ-S5-ILD-S5-HVRRVWR (SEQ ID NO: 3) (hydrocarbon staple formed by two S5 via olefin metathesis). […] Another peptide, FPO217c (Ac-AR_8ILDAHIM$B5$RVW (SEQ ID NO: 280), with N-terminal proline removed and valine replaced with isoleucine compared to FP0025c) was prepared.

Where [8] appears, read: Biacore, biotinylated beta-catenin, read-out: Kd.
Where [9] appears, read: Table 3 Part A, read-out: Binding Kd.
The mark [10] stands for this setting: Table 3 Part A, read-out: Solubility in DPBS.

In brackets after ≈: the same amount, converted by molar mass. Where two headings read alike, the source gives them in different places. Numbered stars: 1 amine (or outer) side, 2 acyl side, 3 side chain; on linkers, the order of the positions; unused ones are H or OH. Bridge positions count the residues as written; N and C are the ends. Square brackets hold non-standard residues; d marks the D form. Primed or numbered codes have the meaning given here. Ends that are not written are not given here. Peptide text beside a SMILES is read from it. MB = Monomer B = PyrS, Alloc-pyrrolidine stapling residue (allyl carbamate on pyrrolidine N); dαMeDab(Me) = CN(CC[C@@](C)(N[*:1])C(=O)[*:2])[*:3]; X1 = O=C([C@]1(N[*:1])CCN([*:3])C1)[*:2]; X2 = O=C(OCC=CCOC(=O)[*:2])[*:1]; R8 = C=CCCCCCC[C@@](C)(N)C(=O)O; S5 = C=CCCC[C@](C)(N)C(=O)O; PEG1′ = not defined here Some results are limits rather than exact numbers.

With `CC[C@H](C)[C@@H]1NC(=O)[C@H](Cc2c[nH]cn2)NC(=O)[C@H](C)NC(=O)[C@H](CC(=O)O)NC(=O)[C@H](CC(C)C)NC(=O)[C@H]([C@@H](C)CC)NC(=O)[C@](C)(NC(=O)[C@H](C)NC(C)=O)CCCCCCC=CCOC(=O)N2CC[C@@](C(=O)N[C@@H](CCCNC(=N)N)C(=O)N[C@H](C(=O)N[C@@H](Cc3c[nH]c4ccccc34)C(N)=O)C(C)C)(C2)NC1=O` (single isomer, unassigned) [FPO217c Isomer 2, Ac-AR8ILDAHIMBRVW (SEQ ID NO: 280)], in data set [1], the concentration giving a half-maximal response (EC50) (in general, the midpoint of the concentration-response curve) was less than 100 nM. Further, the Kd (as a rule, the free concentration of one partner at which half of the binding sites on the other are occupied at equilibrium, for simple one-to-one binding) amounted to 2 nM in data set [2] (setting [8]) and 4 nM in data set [2] (setting [9]). Also, the solubility (in general, how much of the substance goes into solution per volume) turned out to be 7 µM (≈ 11.1 µg/mL) in data set [3] (Table 2, read-out: Solubility) and 12 µM (≈ 19 µg/mL) in data set [3] (setting [10]). In addition, the half-life (as a rule, the time in which the quantity being followed falls by half) in the data set “Plasma PK in rats” (rat, plasma) is greater than 1 h.

Consider `CC[C@H](C)[C@@H]1NC(=O)[C@H](Cc2c[nH]cn2)NC(=O)[C@H](C)NC(=O)[C@H](CC(=O)O)NC(=O)[C@H](CC(C)C)NC(=O)[C@H]([C@@H](C)CC)NC(=O)[C@](C)(NC(=O)[C@H](C)NC(C)=O)CCN(C)C(=O)OCC=CCOC(=O)N2CC[C@@](C(=O)N[C@@H](CCCNC(=N)N)C(=O)N[C@H](C(=O)N[C@@H](Cc3c[nH]c4ccccc34)C(N)=O)C(C)C)(C2)NC1=O` [FP0597c, Ac-A-MG-I-L-D-A-H-I-MB-R-V-W-NH2] (Ac-A[dαMeDab(Me)]ILDAHI[X1]RVW-NH2; linker 2-9 via X2), for which, in data set [1], the half-maximal effective concentration (EC50) is less than 100 nM. Further, the Kd in data set [2] (setting [8]) is 7 nM; in data set [2] (Table 2, read-out: Kd by SPR) it was 4 nM; in [2] (setting [9]), 4 nM. The solubility in data set [3] (Table 2, read-out: Solubility) amounted to 98 µM (≈ 158 µg/mL); in data set [3] (read-out: solubility), 98 µM (≈ 158 µg/mL). Also, the solubility thermodynamic in data set [3] (setting [10]) stood at 98 µM (≈ 158 µg/mL). Besides, the “plasma half-life compared with FP0217c (Isomer 2)” value in “Plasma PK in rats” is on record as “shorter”.

With “Ac-PEG1-RRWPRS5ILDS5HVRRVWR (SEQ ID NO: 278) ({Ac-PEG1′}-RRWPR[S5]ILD[S5]HVRRVWR; staple 6-10) [StAx-35R, "3 amino acids were added to the N-terminus of the peptide and one other Q→R mutation was made ... the resulting peptide StAx-35R"]”, in the data set with beta-catenin, the “affinity compared to StAx-33” value is “reduced”.

B1: FP0787s (peptide)
peptide: Ac-PQ[S5]ILD[S5]HVRRVWR-NH2
modifications: staple 3-7
SMILES: CC[C@H](C)[C@@H]1NC(=O)[C@@](C)(NC(=O)[C@H](CCC(N)=O)NC(=O)[C@@H]2CCCN2C(C)=O)CCCC=CCCC[C@@](C)(C(=O)N[C@@H](Cc2c[nH]cn2)C(=O)N[C@H](C(=O)N[C@@H](CCCNC(=N)N)C(=O)N[C@@H](CCCNC(=N)N)C(=O)N[C@H](C(=O)N[C@@H](Cc2c[nH]c3ccccc23)C(=O)N[C@@H](CCCNC(=N)N)C(N)=O)C(C)C)C(C)C)NC(=O)[C@H](CC(=O)O)NC(=O)[C@H](CC(C)C)NC1=O
notes: also called S5/S5
In turn, B1 gave an EC50 in the data set with full-length beta-catenin [4] of roughly 100 nM. Besides, the “FP EC50” value with full-length beta-catenin [5] was 100 to 500 nM.

B2: FP0025c (peptide)
peptide: Ac-PA[R8]ILDAHV[MB]RVW-NH2
modifications: staple 3-10
For B2, the “FP EC50” value with full-length beta-catenin [6] is no more than 100 nM. The molecule also returned a concentration giving a half-maximal response (EC50) with full-length beta-catenin [7] of less than 100 nM.

The values above are taken from patent US11198713B2, “Agents modulating beta-catenin functions and methods thereof” (FOG PHARMACEUTICALS, INC., priority 2017, dated 2021).
